The values below come from patent US20250340532A1, “HETEROCYCLIC COMPOUND CCR4 INHIBITOR AND USER THEREOF” (Xizang Haisco Pharmaceutical Co., Ltd., priority 2022, published 2025).

pIC50: −log10 of the molar value. A value given as a limit tells only on which side of the number the result lay.

A word on the pIC50: it is the IC50 on a negative log10 scale, so that one unit is a factor of ten.

For this assay, the target named is T1, CCR4 (Homo sapiens, UniProt P51679).
T1 construct: expressed in transfected cells; host or cells: HEK293
T1 sequence (P51679 1-360): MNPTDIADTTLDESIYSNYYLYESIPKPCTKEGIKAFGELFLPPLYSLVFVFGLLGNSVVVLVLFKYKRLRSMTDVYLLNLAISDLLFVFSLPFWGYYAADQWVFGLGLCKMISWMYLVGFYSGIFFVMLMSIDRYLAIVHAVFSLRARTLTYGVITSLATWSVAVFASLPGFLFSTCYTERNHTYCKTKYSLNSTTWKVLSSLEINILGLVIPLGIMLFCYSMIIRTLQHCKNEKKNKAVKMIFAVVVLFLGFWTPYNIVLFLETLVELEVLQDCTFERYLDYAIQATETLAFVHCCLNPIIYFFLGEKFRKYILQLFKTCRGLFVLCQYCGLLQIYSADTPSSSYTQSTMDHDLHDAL
In words: Calcium flow detected by FLIPR. The class given is cell-based. Particulars: CCR4/HEK293 cells, agonist CCL17, Fluo-4 calcium signal. The method, then:
CCR4/HEK293 cells were added to a 384-well cell culture plate (Greiner #781946) at a rate of 20 μL/well (20,000 cells/well) and incubated overnight in a 37° C., 5% CO2 incubator (Incubator, Thermo). On the second day, the 384-well cell culture plate was taken out of the incubator and the culture medium was removed; Then, 20 μL of detection buffer and 20 μL of 2X Fluo-4 Direct™ (Invitrogen, Cat #F10471) were added. Then, compounds were added at 10 μL/well (compounds were subjected to 4-fold serial dilution, and the highest detection concentration was 10 μM), and the cells were incubated in a 37° C., 5% CO2 incubator for 50 min, and then incubated at room temperature for 10 min. The 384-well culture plate was placed in FLIPR ([…]), 10 μL of 6X agonist CCL17 was added by using an automatic loader, and the fluorescence signal was read immediately. The mean and standard error (Mean±SEM) were statistically analyzed using Graphpad Prism software, and the IC50 value was calculated.
The experimental results are shown in Table 3, where A represents IC50<100 nm; B represents 100 nM≤IC50<500 nM, and C represents 500 nM≤IC50.

Take `CC(Nc1cc(N2CC(F)(C3CN(C4CC(C)(C(=O)O)C4)CCO3)C2)ccc1Cl)c1ccc(Cl)cc1Cl` (single isomer, unassigned) [Compound 86 isomer 1]: the pIC50 was over 7.00.

Regarding `C[C@@H](Nc1cc(N2CC([C@H]3CCCN([C@H]4C[C@](C)(C(=O)O)C4)C3)C2)nc2ccnn12)c1ccc(Cl)cc1Cl` [Compound 14], the pIC50 is over 7.00.

`C#Cc1ccc(C(C)Nc2nc(N3CC([C@H]4CCCN([C@H]5C[C@](C)(C(=O)O)C5)C4)C3)nc(C)c2Cl)c(Cl)c1` (single isomer, unassigned) [Compound 11 isomer 1]: the pIC50 is over 7.00.

`Cc1nc(N2CC([C@H]3CCCN([C@H]4C[C@](C)(C(=O)O)C4)C3)C2)nc2c1CCCN2C(C)c1ccc(Cl)cc1Cl` (stereo partly shown) [Compound 36]: the pIC50 was 6.30 to 7.00. The result for `C[C@@H](Nc1cc(N2CC(C3CN(C4CC(C)(C(=O)O)C4)CCO3)C2)ncn1)c1ccc(Cl)cc1Cl` (single isomer, unassigned) [Compound 29 isomer 1] reads 6.30 to 7.00; that for `Cc1nc(N2CCC(C3CN(C4CC(C)(C(=O)O)C4)CCN3C)CC2)nc(NC(C)c2ccc(Cl)cc2Cl)c1Cl` (single isomer, unassigned) [Compound 105 isomer 3], over 7.00. Turning to `C[C@@H](Nc1nc(N2CC([C@H]3CCCN([C@H]4C[C@](C)(C(=O)O)C4)C3)C2)c2sccc2n1)c1ccc(Cl)cc1Cl` [Compound 33], the pIC50 was over 7.00. Turning to `CC(Nc1nc(N2CC(C3CN(C4CC(C)(C(=O)O)C4)CCO3)C2)ncc1Cl)c1ccc(Cl)cc1Cl` (single isomer, unassigned) [Compound 42 isomer 1], the pIC50 was over 7.00. As to `Cc1nc(N[C@H](C)c2ccc(Cl)cc2Cl)cc(N2CC([C@H]3CCCN([C@H]4C[C@](C)(C(=O)O)C4)C3)C2)n1` [Compound 26], the pIC50 was over 7.00. Consider `Cc1nc(N2CC(F)(C3CN(C4CC(C(=O)O)C4)CCO3)C2)nc(N[C@H](C)c2ccc(Cl)cc2Cl)c1Cl` (single isomer, unassigned) [Compound 84 isomer 1], for which the pIC50 was 6.30 to 7.00. In the case of `CC(Nc1nc(N2CC(F)(C3CN(C4CC(C)(C(=O)O)C4)CCO3)C2)nc(C(F)F)c1Cl)c1ccc(Cl)cc1Cl` (single isomer, unassigned) [Compound 66 isomer 3], the pIC50 was 6.30 to 7.00.

`C#Cc1ccc(C(C)Nc2cc(N3CC([C@H]4CCCN([C@H]5C[C@](C)(C(=O)O)C5)C4)C3)nc3ccnn23)c(Cl)c1` (stereo partly shown) [Compound 22]: the pIC50 is over 7.00.

Turning to `Cc1nc(N2CC(C3CN(C4CC(c5nn[nH]n5)C4)CCO3)C2)nc(NC(C)c2ccc(Cl)cc2Cl)c1Cl` (single isomer, unassigned) [Compound 79 isomer 2], the pIC50 is 6.30 to 7.00. The result for `C#Cc1cc(Cl)ccc1C(C)Nc1nc(N2CC(C3CCCN(C4CC(C)(C(=O)O)C4)C3)C2)nc(C)c1Cl` (single isomer, unassigned) [Compound 7 isomer 2] reads 6.30 to 7.00; that for `Cc1nc(N2CC([C@H]3CCCN([C@H]4C[C@](C)(C(=O)O)C4)C3)C2)nc(NC(C)c2cc3c(cc2Cl)CC3)c1Cl` (stereo partly shown) [Compound 13], 6.30 to 7.00. As for `Cc1nc(N2CC(N3CCCC(N4CC(C)(C(=O)O)C4)C3)C2)nc(NC(C)c2ccc(Cl)cc2Cl)c1Cl` (single isomer, unassigned) [Compound 16 isomer 1], the figure is 6.30 to 7.00; as for `C#Cc1c(C)nc(N2CC([C@H]3CCCN([C@H]4C[C@](C)(C(=O)O)C4)C3)C2)nc1N[C@H](C)c1ccc(Cl)cc1Cl` [Compound 4], over 7.00.

`C[C@@H](Nc1nc(N2CC([C@H]3CCCN([C@H]4C[C@](C)(C(=O)O)C4)C3)C2)c2ccn(C)c2n1)c1ccc(Cl)cc1Cl` [Compound 43]: the pIC50 is 6.30 to 7.00. Regarding `C[C@@H](Nc1nc(N2CC([C@H]3CCCN([C@H]4C[C@](C)(C(=O)O)C4)C3)C2)c2occc2n1)c1ccc(Cl)cc1Cl` [Compound 51], the pIC50 was over 7.00. `Cc1nc(N2CC(N3CCCC(N4CC(C)(C(=O)O)C4)C3)C2)nc(NC(C)c2ccc(Cl)cc2Cl)c1Cl` (single isomer, unassigned) [Compound 16 isomer 2]: the pIC50 was over 7.00. For the compound `C#Cc1cc(Cl)ccc1C(C)Nc1nc(N2CC(C3CN(C4CC(C)(C(=O)O)C4)CCO3)C2)nc(C)c1Cl` (single isomer, unassigned) [Compound 30 isomer 1], the negative logarithm of the IC50 (pIC50) was over 7.00.

Take `C[C@@H](Nc1nc2c(c(N3CC([C@H]4CCCN([C@H]5C[C@](C)(C(=O)O)C5)C4)C3)n1)CCC2)c1ccc(Cl)cc1Cl` [Compound 34]: the pIC50 is 6.30 to 7.00. On to `CC(Nc1nc(N2CC(C3CN(C4CC(C)(C(=O)O)C4)CCC34CC4)C2)nc(C(F)F)c1Cl)c1ccc(Cl)cc1Cl` (single isomer, unassigned) [Compound 74 isomer 3], for which the pIC50 was 6.30 to 7.00. Consider `C[C@H](c1ccc(Cl)cc1Cl)n1nc(C#N)c2ncc(N3CC(C4CN(CCO)CCO4)C3)nc21` (stereo partly shown) [Compound 19], for which the pIC50 is over 7.00.

`Cc1nc(N2CCC(F)(C3CN(C4CC(C)(C(=O)O)C4)CCO3)CC2)nc(NC(C)c2ccc(Cl)cc2Cl)c1Cl` (single isomer, unassigned) [Compound 106 isomer 3]: the pIC50 is over 7.00. As to `C[C@@H](Nc1cc(N2CC([C@H]3CCCN([C@H]4C[C@](C)(C(=O)O)C4)C3)C2)ncn1)c1ccc(Cl)cc1Cl` [Compound 15], the pIC50 is over 7.00. As to `C[C@@H](Nc1nc(N2CC([C@H]3CCCN([C@H]4C[C@](C)(C(=O)O)C4)C3)C2)c2c(ccn2C)n1)c1ccc(Cl)cc1Cl` [Compound 44], the pIC50 was 6.30 to 7.00. For the compound `C[C@@H](Nc1nc(N2CC(C3CN(C4CC(C)(C(=O)O)C4)CCO3)C2)nc2ccccc12)c1ccc(Cl)cc1Cl` (single isomer, unassigned) [Compound 67 isomer 1], the pIC50 was over 7.00. As for `Cc1nc(N2CC(C3CN(C4CC(c5nn[nH]n5)C4)CCO3)C2)nc(NC(C)c2ccc(Cl)cc2Cl)c1Cl` (single isomer, unassigned) [Compound 79 isomer 1], the figure is 6.30 to 7.00; as for `Cc1nc(N[C@H](C)c2ccc(Cl)cc2Cl)nc(N2CC([C@H]3CCCN([C@H]4C[C@](C)(C(=O)O)C4)C3)C2)c1Cl` [Compound 56], 6.30 to 7.00; as for `C#Cc1ccc(C(C)Nc2cc(N3CC([C@H]4CCCN([C@H]5C[C@](C)(C(=O)O)C5)C4)C3)ncn2)c(Cl)c1` (stereo partly shown) [Compound 23], over 7.00. As for `C[C@@H](Nc1cc(N2CC([C@H]3CCCN([C@H]4C[C@](C)(C(=O)O)C4)C3)C2)nc(C(F)(F)F)n1)c1ccc(Cl)cc1Cl` [Compound 52], the figure is 6.30 to 7.00; as for `C[C@@H](Nc1cc(N2CCC(C3CN(C4CC(C)(C(=O)O)C4)CCO3)CC2)nc2ccnn12)c1ccc(Cl)cc1Cl` (single isomer, unassigned) [Compound 111], over 7.00. As to `CC(Nc1nc(N2CC(C3CN(C4CC(C)(C(=O)O)C4)CCO3)C2)ncc1Br)c1ccc(Cl)cc1Cl` (single isomer, unassigned) [Compound 37 isomer 2], the negative-log IC50 (pIC50) is 6.30 to 7.00. As to `Cc1nc(N2CC=C(C3CN(C4CC(C)(C(=O)O)C4)CCO3)CC2)nc(NC(C)c2ccc(Cl)cc2Cl)c1Cl` (single isomer, unassigned) [Compound 107 isomer 1], the pIC50 is over 7.00.

With `Cc1cc(N2CC([C@H]3CCCN([C@H]4C[C@](C)(C(=O)O)C4)C3)C2)cc(N[C@H](C)c2ccc(Cl)cc2Cl)n1` [Compound 39], the pIC50 was over 7.00.

With `C[C@@H](Nc1cc(N2CC([C@H]3CCCN(CCO)C3)C2)ncn1)c1ccc(Cl)cc1Cl` [Compound 27], the pIC50 is over 7.00. `Cc1nc(C#CC2CCCN(C3CC(C)(C(=O)O)C3)C2)nc(NC(C)c2ccc(Cl)cc2Cl)c1Cl` (single isomer, unassigned) [Compound 18 isomer 2]: the pIC50 was over 7.00. `Cc1nc(N2CC(C3CN(C4CC(C)(c5nn[nH]n5)C4)CCO3)C2)nc(NC(C)c2ccc(Cl)cc2Cl)c1Cl` (single isomer, unassigned) [Compound 71 isomer 1]: the pIC50 is 6.30 to 7.00.

Regarding `C[C@@H](Nc1cc(N2CC([C@H]3CCCN([C@H]4C[C@](C)(C(=O)O)C4)C3)C2)nc2nccn12)c1ccc(Cl)cc1Cl` [Compound 55], the pIC50 is over 7.00. In the case of `C[C@@H](Nc1cc(N2CC([C@H]3CCCN([C@H]4C[C@](C)(C(=O)O)C4)C3)C2)cnn1)c1ccc(Cl)cc1Cl` [Compound 21], the pIC50 is over 7.00.

Turning to `Cc1nc(N2CC(C3CCCC(N4CC(C)(C(=O)O)C4)C3)C2)nc(NC(C)c2ccc(Cl)cc2Cl)c1Cl` (single isomer, unassigned) [Compound 8 isomer 1], the pIC50 is 6.30 to 7.00. Consider `CC(Nc1nc(N2CC(F)(C3CN(C4CC(C)(C(=O)O)C4)CCO3)C2)ncc1Cl)c1ccc(Cl)cc1Cl` (single isomer, unassigned) [Compound 89 isomer 1], for which the pIC50 was over 7.00.
